This is an account of results in US7405228B2, “Antibacterial cyano-(substituted)-methylenepiperidinophenyl oxazolidinones targeting multiple ribonucleoprotein sites” (Wockhardt Limited, priority 2002, dated 2008).

SMILES strings stand for the structures. In brackets after ≈: the same amount, converted by molar mass.

One data set concerns S. aureus MRSA-32 LNZR. The experiment in a line: MIC determination, linezolid resistant S. aureus MRSA-32 LNZR. In kind it is cell-based. The settings on record: Staphylococcus aureus, 24 h, read-out: MIC MRSA 32 LNZR. As to the method:
(§1) Infecting doses of organisms given by intraperitoneal route in 5% hog gastric mucin were 10^3-10^4 CFU (colony forming units)/animal for SPN 6303 and 10^8 CFU/animal for MRSA-32. In case of MRSA-32, Linezolid was administered by oral route, 1 and 4 h post infection, BID (twice a day) for 1 day and for SPN 6303 BID for 2 days. […] MICs of Methicillin Resistant Staphylococcus aureus-32 Linezolid resistant (MRSA-32 LNZR), S. pneumoniae 744 Linezolid resistant (SPN 744 LNZR) and parent Linezolid sensitive strains MRSA-32 and SPN 6303 were determined for Linezolid by NCCLS agar dilution method.
(§2) Cultures were further diluted 1:10 in Mueller Hinton broth. Using Denley's mutipoint inoculator, 10^4 cells were deposited on Mueller Hinton agar (Difco) containing range of 2 fold dilutions of test compounds. […] MIC is defined as minimum drug concentration that inhibits test organisms. For determining MIC of test compounds against Streptococcus pneumoniae, Mueller Hinton agar containing 5% sheep blood was employed.

The next data set relates to SPN 49619. The experiment in a line: MIC determination, linezolid sensitive SPN 49619. In kind it is cell-based. As to conditions: Streptococcus pneumoniae; linezolid sensitive strain, Table 3.
Another data set relates to MRSA 032. The experiment in a line: MIC determination, linezolid sensitive MRSA 032 (MRSA-32). The settings on record: Staphylococcus aureus, read-out: MIC MRSA 32. In kind it is cell-based. The method, then:
as §1, §2

The subject of the next data set is SPN 744 LNZR. Nature of the data set: MIC determination, linezolid resistant SPN 744 LNZR. Type of data set: cell-based. The settings on record: Streptococcus pneumoniae, read-out: MIC SPN744 LNZR. As to the method:
as §1, §2

The subject of a further data set is E. faecium 367 LNZR. The experiment in a line: MIC determination, linezolid resistant E. faecium 367 LNZR. In kind it is cell-based. As to conditions: Enterococcus faecium, read-out: MIC E. faecium 367 LNZR. The method, then: E. faecium ATCC 19434 strain at a cell density of 10^6/ml was inoculated in Mueller Hinton broth medium containing Linezolid at a concentration of 5 and 7.5 mcg/ml. The stationary culture was incubated at 37° C. and inspected at every 24 hours to assess the formation of turbidity due to the onset of bacterial growth. […] A 50 microliter sample of turbid flask was plated on Mueller Hinton agar medium incorporated with linezolid at 7.5 mcg/ml. The agar plates were incubated for 48 hours at 37° C. for the formation of discrete colonies of linezolid-resistant strain of E. faecium (E. faecium 367 LNZR). MICs of resistant mutant E. faecium 367 LNZR and parent strain E. faecium ATCC 19434 were determined for linezolid by NCCLS method.
as §2

With `CC(=S)NC[C@H]1CN(c2ccc(N3CCC(=CC#N)CC3)c(F)c2)C(=O)O1` [Example 45, (S)-N-{3-[4-(4-cyanomethylidene-piperidin-1-yl)-3-fluorophenyl]-2-oxo-oxazolidin-5-ylmethyl}-thioacetamide], the minimum inhibitory concentration (MIC) (commonly the lowest concentration that inhibits growth of the organism) was 3.12 µg/mL (≈ 8.03 µM) in the data set on S. aureus MRSA-32 LNZR, 0.2 µg/mL (≈ 0.515 µM) in the data set with SPN 49619, 0.2 µg/mL (≈ 0.515 µM) in the data set with MRSA 032 and 3.12 µg/mL (≈ 8.03 µM) in the data set with SPN 744 LNZR. As to `N#C/C=C1\CCN(c2ccc(N3C[C@H](CNC(=O)C(F)F)OC3=O)cc2F)CC1F` (stereo partly drawn) [Example 57, (S)-N-{3-[4-(4-cyanomethylidene-3-fluoropiperidin-1-yl)-3-fluorophenyl]-2-oxo-oxazolidin-5-ylmethyl}-difluoroacetamide], the MIC in the data set on S. aureus MRSA-32 LNZR was determined as 12.5 µg/mL (≈ 29.3 µM); in the data set with SPN 744 LNZR it was 6.25 µg/mL (≈ 14.7 µM); with E. faecium 367 LNZR, 6.25 µg/mL (≈ 14.7 µM).

As for `CC(C#N)=C1CCN(c2ccc(N3C[C@H](CNC(=O)C(Cl)Cl)OC3=O)cc2F)CC1` [Example 79, (S)-N-{3-[4-(4-(1-cyanoethylidene)-piperidin-1-yl)-3-fluorophenyl]-2-oxo-oxazolidin-5-ylmethyl}-dichloroacetamide], the MIC against SPN 49619 and in the data set on MRSA 032 was 0.8 µg/mL (≈ 1.76 µM) throughout. For `CC(=O)NC[C@H]1CN(c2ccc(N3CCC(=C(C#N)n4cncn4)CC3)c(F)c2)C(=O)O1` [Example 104, (S)-N-{3-[4-(4-(1-cyano-1-(1,2,4-triazol-1-yl)-methylidene)-piperidin-1-yl)-3fluorophenyl]-2-oxo-oxazolidin-5-ylmethyl}-acetamide], the melting point – broadly, the temperature, or range, at which the solid turns liquid – was in the range of 194 to 196 °C. Turning to `CC(=O)NC[C@H]1CN(c2ccc(N3CCC(=C(C#N)c4cccs4)CC3)c(F)c2)C(=O)O1` [Example 105, (S)-N-{3-[4-(4-(1-cyano-1-(thiophen-2-yl)-methylidene)-piperidin-1-yl)-3-fluorophenyl]-2-oxo-oxazolidin-5-ylmethyl}-acetamide], the MIC against SPN 49619 and with MRSA 032 was 0.8 µg/mL (≈ 1.76 µM) throughout. `CC(=O)NC[C@H]1CN(c2ccc(N3CCC(=C(C#N)CCO)CC3)c(F)c2)C(=O)O1` [Example 113, (S)-N-{3-[4-(4-(1-cyano-3-hydroxy-propylidene)-piperidin-1-yl)-3-fluorophenyl]-2-oxo-oxazolidin-5-ylmethyl}-acetamide] had a melting point of 192 to 194 °C. Regarding `CC(=S)NC[C@H]1CN(c2ccc(N3CCC(=C(C#N)c4ccccn4)CC3)c(F)c2)C(=O)O1` [Example 118, (S)-N-{3-[4-(4-(1-cyano-1-(pyridin-2-yl)-methylidene)-piperidin-1-yl)-3-fluorophen]-2-oxo-oxazolidin-5-ylmethyl}-thioacetamide], the MIC in the data set on SPN 49619 was determined as 0.4 µg/mL (≈ 0.859 µM); with MRSA 032, 0.8 µg/mL (≈ 1.72 µM). Consider `CC(=S)NC[C@H]1CN(c2ccc(N3CCC(=C(C#N)C#N)CC3)c(F)c2)C(=O)O1` [Example 119, (S)-N-{3-[4-(4-(1,1-dicyano-methylidene)-piperidin-1-yl)-3-fluorophenyl]-2-oxo-oxazolidin-5-ylmethyl}-thioacetamide], for which the MIC with SPN 49619 was 0.8 µg/mL (≈ 1.93 µM); in the data set on MRSA 032, 0.4 µg/mL (≈ 0.967 µM). As to `CC(=S)NC[C@H]1CN(c2ccc(N3CCC(=C(C#N)C(=S)N4CCOCC4)CC3)c(F)c2)C(=O)O1` [Example 121, (S)-N-{3-[4-(4-(1-cyano-1-(morpholin-1-yl-thiocarbonyl)-methylidene)-piperidin-1-yl)-3-fluorophenyl]-2-oxo-oxazolidin-5-ylmethyl}-thioacetamide], the MIC in the data set with S. aureus MRSA-32 LNZR amounted to 6.25 µg/mL (≈ 12.1 µM); in the data set on SPN 49619, 0.2 µg/mL (≈ 0.386 µM); with MRSA 032, 0.4 µg/mL (≈ 0.773 µM); in the data set on SPN 744 LNZR it was 1.56 µg/mL (≈ 3.01 µM).

In turn, `N#CCC1CCN(c2ccc(N3C[C@H](CO)OC3=O)cc2)CC1` [Example 124, (R)-{3-[4-(4-cyanomethyl-piperidin-1-yl)-phenyl]-2-oxo-oxazolidin-5-ylmethyl}-alcohol] came in with a melting point of 110 to 112 °C. `CS(=O)(=O)OC[C@H]1CN(c2ccc(N3CCC(CC#N)CC3)cc2)C(=O)O1` [Example 125, (R)-{3-[4-(4-cyanomethyl-piperidin-1-yl)-phenyl]-2-oxo-oxazolidin-5-ylmethyl}-methanesulphonate] came in with a melting point of 114 to 116 °C.

In the case of `CC(=O)NC[C@H]1CN(c2ccc(N3CCC(C(C#N)COS(C)(=O)=O)CC3)c(F)c2)C(=O)O1` (stereo partly drawn) [Example 134, (S)-N-{3-[4-(4-(1-cyano-2-methanesulphonyloxy)-ethylpiperidin-1-yl)-3-fluorophenyl]-2-oxo-oxazolidin-5-ylmethyl}-acetamide], the melting point was in the range of 136 to 138 °C. With `CC(=O)NC[C@H]1CN(c2ccc(N3CCC(C(C#N)n4ccnc4)CC3)c(F)c2)C(=O)O1` (stereo partly drawn) [Example 136, (S)-N-{3-[4-(4-(1-cyano-1-(imidazol-1-yl))-methylpiperidin-1-yl)-3-fluorophenyl]-2-oxo-oxazolidin-5-ylmethyl}-acetamide], the melting point fell in the range of 210 to 212 °C.

The molecule `COC(=O)c1cn(C[C@H]2CN(c3ccc(N4CCC(C(C#N)CO)CC4)c(F)c3)C(=O)O2)nn1` (stereo partly drawn) [Example 150, (S)-1-{3-[4-(4-(1-cyano-2-hydroxy)-ethylpiperidin-1-yl)-3-fluorophenyl]-2-oxo-oxazolidin-5-ylmethyl}-4-methoxycarbonyl-1,2,3-triazole] displayed a melting point of 204 to 206 °C.

Turning to `CCOC(=O)c1cn(C[C@H]2CN(c3ccc(N4CCC(C(C#N)CO)CC4)c(F)c3)C(=O)O2)nn1` (stereo partly drawn) [Example 151, (S)-1-{3-[4-(4-(1-cyano-2-hydroxy)-ethylpiperidin-1-yl)-3-fluorophenyl]-2-oxo-oxazolidin-5-ylmethyl}-4-ethoxycarbonyl-1,2,3-triazole], the melting point lay in the range of 170 to 172 °C. On to `CCOC(=O)c1cnnn1C[C@H]1CN(c2ccc(N3CCC(C(C#N)CO)CC3)c(F)c2)C(=O)O1` (stereo partly drawn) [Example 152, (S)-1-{3-[4-(4-(1-cyano-2-hydroxy)-ethylpiperidin-1-yl)-3-fluorophenyl]-2-oxo-oxazolidin-5-ylmethyl}-5-ethoxycarbonyl-1,2,3-triazole], for which the melting point lay in the range of 76 to 78 °C. On the same count and under the same terms, the same measure for `N#CC(CO)C1CCN(c2ccc(N3C[C@H](COc4ccon4)OC3=O)cc2F)CC1` (stereo partly drawn) [Example 153, (R)-3-{3-[4-(4-(1-cyano-2-hydroxy)-ethylpiperidin-1-yl)-3-fluorophenyl]-2-oxo-oxazolidin-5-ylmethyloxy}-iso-oxazole]: 146 to 148 °C.

`CS(=O)(=O)OC[C@H]1CN(c2ccc(N3CCC(C(C#N)CO)CC3)c(F)c2)C(=O)O1` (stereo partly drawn) [Example 154, (R)-{3-[4-(4-(1-cyano-2-hydroxy)-ethylpiperidin-1-yl)-3-fluorophenyl]-2-oxo-oxazolidin-5-ylmethyl}-methanesulphonate] had a melting point of 144 to 146 °C. On the same count and under the same terms, then `CS(=O)(=O)OC[C@H]1CN(c2ccc(N3CCC(C(C#N)C(=O)O)CC3)c(F)c2)C(=O)O1` (stereo partly drawn) [Example 155, (R)-{3-[4-(4-(1-Cyano-1-hydroxycarbonyl)-methylpiperidin-1-yl)-3-fluorophenyl]-2-oxo-oxazolidin-5-ylmethyl}-methanesulphonate], with 108 to 110 °C; and `CS(=O)(=O)OC[C@H]1CN(c2ccc(N3CCC(C(C#N)c4nccs4)CC3)c(F)c2)C(=O)O1` (stereo partly drawn) [Example 157, (R)-{3-[4-(4-(1-cyano-1-(1,3-thiazol-2-yl))-methylpiperidin-1-yl)-3-fluorophenyl]-2-oxo-oxazolidin-5-ylmethyl}-methanesulphonate], with 64 to 66 °C; and `CS(=O)(=O)OC[C@H]1CN(c2ccc(N3CCC(C(C#N)C(N)=O)CC3)c(F)c2)C(=O)O1` (stereo partly drawn) [Example 158, (R)-{3-[4-(4-(1-cyano-1-carboxamido)-methylpiperidin-1-yl)-3-fluorophenyl]-2-oxo-oxazolidin-5-ylmethyl}-methanesulphonate], with 220 to 222 °C.

For `CC(=O)NC[C@H]1CN(c2ccc(N3CC=C(CC#N)C(C)C3)c(F)c2)C(=O)O1` (stereo partly drawn) [Example 161, (S)-N-{3-[4-(4-cyanomethyl-3-methyl-4,5-dehydropiperidin-1-yl)-3-fluorophenyl]-2-oxo-oxazolidin-5-ylmethyl}-acetamide], the melting point fell in the range of 149 to 150 °C.

Turning to `CC(C)COC(=O)NC[C@H]1CN(c2ccc(N3CC=C(CC#N)C(F)C3)c(F)c2)C(=O)O1` (stereo partly drawn) [Example 163, (S)-N-{3-[4-(4-cyanomethyl-3-fluoro-4,5-dehydropiperidin-1-yl)-3-fluorophenyl]-2-oxo-oxazolidin-5-ylmethyl}-isobutylcarbamate], the melting point was 146 to 148 °C.
